From the METLIN SMRT retention time set (Domingo-Almenara et al. 2019)

Experiment: gradient 5% acetonitrile 3 min, to 50% in 2 min, to 85% in 15 min, held 3 min, 100 µL/min
Details: column: Zorbax Extend-C18 2.1 x 50 mm; eluents: water / acetonitrile, 0.1% formic acid
How it was run: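 Each retention time is based on an adduct peak selected computationally and verified by manual inspection. Measurements used HPLC–quadrupole time-of-flight mass spectrometry in positive and negative ionization mode on mixtures of ~100 pure standards. Chromatography ran on a Zorbax Extend-C18 column (2.1 × 50 mm, 1.8 μm) at 100 μL/min with water and acetonitrile, each containing 0.1% formic acid, and dead and dwell volumes of 40 μL and 900 μL.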

| SMILES | RP-LC retention time [s] |
| --- | --- |
| COCCCNC(=O)C(C)n1nc(C)c2c(C)n(-c3ccccc3)nc2c1=O (stereo not given) | 686 |
| CCc1noc2nc(C)n(CC(=O)NCc3ccc(OC)cc3)c(=O)c12 | 755 |
| COc1ccc(/C=C2\Cc3ccccc3C2=O)cc1OC | 892 |
| O=C1CCCC(=O)N1CCS(=O)(=O)NCc1cccc(Oc2ccc(F)cc2)c1 | 840 |
| O=C1NCCCCCN(C(=O)Nc2ccccc2)[C@H]2CCCC[C@@H]12 | 577 |
| CC(C)(C)C1CCc2c(sc3nc(CCC(=O)N4CCC(C(N)=O)CC4)[nH]c(=O)c23)C1 (stereo not given) | 779 |
| CCc1ccc(OCc2nc(CCN(C)C(=O)c3cccs3)no2)cc1 | 924 |
| COCCNC(=O)C1CCc2sc(C(=O)N3CCCCCC3)cc2C1 (stereo not given) | 682 |
| Cc1ccc(C)c(NC(=O)Cn2c(C)nc3onc(C)c3c2=O)c1 | 800 |
| CCc1ccc(CNC(=O)C2CCN(c3cnc(N4CCOCC4)nc3)CC2)cc1 | 786 |
| COc1ccccc1OCCN1C(=O)C(NC(C)=O)c2ccccc21 (stereo not given) | 666 |
| CCc1ccc(OCc2ccc(C(=O)Nc3nc(-c4ccccc4)cs3)o2)cc1 | 1270 |
| O=C(CSc1ccc(N2CCCC(C(=O)NC3CC3)C2)nn1)Nc1ccccc1Br (stereo not given) | 664 |
| Cc1ccc(CN2C[C@@H]3C(=O)N(CCc4ccccc4)C(=O)[C@@H]3C2)o1 | 719 |
| COc1cccc(-c2nc3cnccn3c2NCCC(=O)NC2CCCCCC2)c1 | 755 |
| C#CCCNC(=O)c1cccn(C)c1=O | 572 |
| O=[N+]([O-])c1ccccc1S(=O)(=O)c1ccccc1[N+](=O)[O-] | 840 |
| O=C(CCC1CCN(c2cc(NC3CC3)ncn2)CC1)NCc1cc(F)ccc1F | 666 |
| COc1ccc(-n2c(=O)c(C(=O)NC3CCCCC3)c(O)c3cccnc32)cc1 | 1300 |
| Cc1cc(C(=O)N2CCN(c3ccccc3Cl)CC2)nc2ccnn12 | 875 |
| CC(C)C(=O)NCC12CCCC=C1N(C)C(=O)CC2 (stereo not given) | 660 |
| CCn1cc(CCNC(=O)NCC(=O)OC)c2cccnc21 | 574 |
| COc1cc(OC)c(NC(=O)N2CCOc3ccccc32)cc1Cl | 1010 |

| SMILES | RP-LC retention time [s] |
| --- | --- |
| CC(=O)N1C[C@@H](C(=O)NCc2cccs2)[C@H](c2nc(C)no2)C1 | 630 |
| CCN(CC)CCNC(=O)C1CCN(c2nccnc2Sc2ccccc2)CC1 | 657 |
| N#Cc1ccc(NS(=O)(=O)c2c[nH]c3ncccc23)cc1 | 686 |
| CSc1ncccc1C(=O)NCC(O)c1ccsc1 (stereo not given) | 626 |
| CCN1c2cc(C(=O)NCCC3=CCCCC3)ccc2C(=O)N2CCCCC21 (stereo not given) | 959 |
| COc1ccc(-c2noc(C3CC(=O)N(c4ccc(C)cc4)C3)n2)cc1OC (stereo not given) | 885 |
| COc1ccc(-c2[nH]ncc2CN2CCC3(CCC3O)CC2)cc1 (stereo not given) | 584 |
| Cc1ccc(Cn2cc(-c3ccncc3)cc2C(=O)Nc2ccc3c(c2)OCO3)cc1 | 760 |
| CCN1CCN(C(=O)CN2C(=O)COc3ccc(C(=O)N4CCCC4)cc32)CC1 | 571 |
| CN1CCN(C(=O)c2cn(-c3cc(N4CCSCC4)ncn3)cn2)CC1 | 593 |
| CN1CCC2(CC1)CN(C(=O)Nc1ccccc1)CC2c1nc(-c2ccccc2)no1 (stereo not given) | 659 |
| CCCCN1CCN(C(=O)c2cn(-c3cc(N4CCC(C)CC4)ncn3)cn2)CC1 | 690 |
| O=C(NC1CCCC1)C1c2ccccc2CC(=O)N1Cc1ccccc1 (stereo not given) | 856 |
| COC(=O)c1[nH]c(C)c(C(=O)C(C)N(C(=O)c2ccc(C)cc2)C2CCCCC2)c1C (stereo not given) | 1050 |
| CCn1ccc2sc(C)c(C(=O)NCC3CCCCC3)c2c1=O | 884 |
| Cc1ccc(-c2nc3c(C)cccn3c2Nc2ccc3c(c2)OCCO3)cc1 | 721 |
| Cc1cc(-c2nnc(NC(=O)c3cc4cc([N+](=O)[O-])ccc4s3)o2)n(C)n1 | 789 |
| O=C(CSc1nnc(-c2ccccc2F)o1)Nc1nccs1 | 691 |
| Fc1ccc(-c2nc(-c3cn(Cc4cccc(F)c4)nn3)no2)cc1 | 1010 |
| CCC(C(=O)NC1CC1)n1nc(C)c2c(C)n(-c3ccccc3)nc2c1=O (stereo not given) | 735 |
| O=C(NCC(F)(F)F)C1CCN(C(=O)NCc2ccccc2)CC1 | 656 |
| CCn1ccc2c(cc(C(=O)Nc3cc(OC)ccc3OC)n2C)c1=O | 746 |
| CCc1nc2cc(N3CCCC(C(=O)NCc4cccnc4)C3)cnc2nc1CC (stereo not given) | 600 |

| SMILES | RP-LC retention time [s] |
| --- | --- |
| CCCn1cc(S(=O)(=O)NCc2ccccc2C(F)(F)F)c2cccnc21 | 988 |
| CS(=O)(=O)N1C[C@H]2CCN(Cc3cccc(F)c3F)C[C@H]21 | 575 |
| O=C(Cn1nc(S(=O)(=O)c2ccc(Cl)cc2)ccc1=O)N1CCN(c2ccccc2F)CC1 | 937 |
| COc1ccc(N2CCN(c3cc(-c4nc(-c5ccccc5)no4)c4ccccc4n3)CC2)cc1 | 586 |
| COCCCNC(=O)Cc1csc(SCc2ccc(Br)cc2)n1 | 830 |
| CC(=O)N1C[C@@H](C(=O)NCCc2c(C)noc2C)[C@H](c2nc(C)no2)C1 | 609 |
| O=C(Cn1ccc2c(SCc3ccccc3)nccc21)N1CCN(c2ccccc2)CC1 | 768 |
| O=C(Nc1nnc(C2CC(=O)N(c3ccc(Cl)cc3)C2)o1)c1cccc(F)c1 (stereo not given) | 786 |
| CN(CC(=O)N1CCN(c2ccccc2)CC1)S(=O)(=O)c1c[nH]c(C(=O)N2CCCC2)c1 | 744 |
| CN(C1CCCCC1)S(=O)(=O)c1ccc(C(=O)Nc2nc3c(s2)Cc2ccccc2-3)cc1 | 1260 |
| CCn1cc(-c2ccc(C)cc2)cc1C(=O)NCC1CCCO1 (stereo not given) | 614 |
| Cc1cccc(NC(=O)N2CCc3nc(-c4ccc(F)cc4)ncc3C2)c1C | 974 |
| CN1CCN(C(=O)C(=O)Nc2c3c(nn2-c2ccc(Cl)cc2)CSC3)CC1 | 634 |
| COc1ccc(Cl)cc1NC(=O)Cn1nc(N2CCCC2)c2ccccc2c1=O | 1090 |
| Cn1cc(C(CNC(=O)Nc2ccccc2Cl)c2cccnc2)c2ccccc21 (stereo not given) | 726 |
| CONC(=O)Cc1csc(Nc2cc(C)ccn2)n1 | 526 |
| COc1ncc(C(=O)NCc2ccccc2Cl)cn1 | 737 |
| COc1ccc(NC(=O)N2[C@H]3CC[C@@H]2c2cncnc2C3)c(C)c1 | 634 |
| CC(C)n1c(=O)sc2cc(S(=O)(=O)N3CCC(C(=O)NC4CCCC4)CC3)ccc21 | 896 |
| Cc1ccc(-c2cnc(N3CCCC(C(=O)NCc4ccc5c(c4)OCO5)C3)nc2)cc1 (stereo not given) | 1060 |
| Cc1ccc(NC(=O)Cn2nc(N3CCC(C)CC3)c3ccccc3c2=O)c(C)c1 | 1160 |
| Cc1csc(-c2cc(S(=O)(=O)N3CCC(C)CC3)cn2CC(=O)N2CCCCC2)n1 | 1130 |
| Cc1ccc(NC(=O)N2CCC(n3cnc4ccc(Cl)cc4c3=O)CC2)cc1C | 913 |

| SMILES | RP-LC retention time [s] |
| --- | --- |
| Cc1noc([C@@H]2CN(Cc3c(F)cccc3Cl)C[C@H]2CO)n1 | 605 |
| Cc1ccc(NC(=O)N2CCC3(C2)C(=O)N(C)c2ccccc23)cc1 (stereo not given) | 814 |
| COc1ccc(S(=O)(=O)C(CNC(=O)c2ccco2)c2cccs2)cc1 (stereo not given) | 735 |
| CC(C)C(=O)Nc1ccc(C2(C(=O)NCc3ccc(F)c(Cl)c3)CCC2)cc1 | 927 |
| Cc1nn(-c2ccc(-c3ccccc3)nn2)c(C)c1S(=O)(=O)NCc1ccccc1 | 1030 |
| CCCNC(=O)C1CCCN(c2ccc(SCC(=O)Nc3cc(F)ccc3F)nn2)C1 (stereo not given) | 698 |
| Cc1noc(C)c1C(=O)N1CC(F)(F)C[C@H]1c1nc(C2CC2)no1 | 806 |
| Cc1nc2ccn(Cc3ccco3)c(=O)c2cc1C(=O)NCc1ccco1 | 718 |
| COC(=O)c1cccc(NC(=O)N(C)CCc2noc(C3CCCCC3)n2)c1 | 937 |
| Cc1cc(C)n(-c2ccnc(N3CCC(C(=O)N4CCc5ccccc5C4)CC3)n2)n1 | 935 |
| Cc1noc(-c2ccnc(-n3ncc(C(=O)N4CCC(C)CC4)c3C)c2)n1 | 946 |
| CCN1CCN(CCCNC(=O)c2oc3ccc4c(c3c2C)C(O)CC(C)(C)O4)CC1 (stereo not given) | 592 |
| CCn1nccc1-c1nc(C2CC(=O)N(c3ccc(C)cc3)C2)no1 (stereo not given) | 680 |
| COc1cccc(-n2ccn3cc(-c4ccc(Br)cc4)nc3c2=O)c1 | 893 |
| CN(C)c1nc(Nc2ccc3c(c2)OCO3)c2cnn(-c3ccccc3)c2n1 | 1220 |
| CCc1ccc(NC(=O)N2CCN(Cc3nc4ccccc4o3)CC2)cc1 | 738 |
| CCCCN(C)C(=O)C1CCN(S(=O)(=O)c2ccc3c(c2)CCCC(=O)N3)CC1 | 719 |
| CC(C)c1nc(N(C)Cc2ccccc2)ncc1C(=O)O | 1030 |
| CC(C)(C[C@@](O)(Cc1cc2ccncc2[nH]1)C(F)(F)F)c1cc(F)ccc1O | 790 |
| CCN1CCN(c2ccc(NC(=O)c3ccc(F)cc3Cl)cn2)C1=O | 742 |
| CCOc1cc(=O)n2c(c1C(=O)Nc1ccc(Br)c(C)c1)CCCC2 | 848 |
